Reference: patent US12208088B2 (Genentech, Inc., priority 2018, dated 2025)

Each molecule was assayed against HPK1 (Homo sapiens (Human), UniProt Q92918) (assay: HPK1 Lantha binding assay ("Lanth")). Settings: binding assays; Morrison Ki fit.
Method in brief: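 TR-FRET binding competition using 2 nM HPK1, 2 nM Eu-anti-GST antibody and 15 nM Tracer222 at 23 °C. Compound was incubated 1 h with enzyme and antibody, then 1 h after tracer addition, with an 11-point 5-fold dilution series. Ki obtained from a Morrison fit that corrects for tracer concentration and Kd.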

Sequence of HPK1 (Q92918 1-346 limits assumed): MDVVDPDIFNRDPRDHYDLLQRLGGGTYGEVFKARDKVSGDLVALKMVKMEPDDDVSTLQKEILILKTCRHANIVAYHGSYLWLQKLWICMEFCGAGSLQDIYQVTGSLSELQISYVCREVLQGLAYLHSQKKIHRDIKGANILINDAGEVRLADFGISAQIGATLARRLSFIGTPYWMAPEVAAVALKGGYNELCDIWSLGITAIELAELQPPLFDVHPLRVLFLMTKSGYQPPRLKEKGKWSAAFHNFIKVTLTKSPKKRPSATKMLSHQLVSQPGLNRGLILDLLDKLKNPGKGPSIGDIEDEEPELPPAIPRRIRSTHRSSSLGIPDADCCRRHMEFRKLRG

Ki | SMILES
41 nM | CN(C)CCCN(C)C(=O)c1c(N)ccc(-c2cnc3c(c2Cl)[C@]2(CC[C@](C)(C#N)C2)CN3)c1F (relative stereo) [Compound 275a, 6-Amino-3-((1R,3S)-4′-chloro-3-cyano-3-methyl-1′,2′-dihydrospiro[cyclopentane-1,3′-pyrrolo[2,3-b]pyridin]-5′-yl)-N-(3-(dimethylamino)propyl)-2-fluoro-N-methylbenzamide]
771 nM | CN(C)C(=O)c1c(N)ccc(-c2cnc3c(c2Cl)[C@]2(CCC(=O)NC2)CN3)c1F (single isomer, unassigned) [Compound 123b]
43.7 nM | O=C1NCCCC1c1cccc(-c2cnc3c(c2Cl)C2(CC2)CN3)c1 (stereo not shown) [Compound 58, 3-(3-(4′-Chloro-1′,2′-dihydrospiro[cyclopropane-1,3′-pyrrolo[2,3-b]pyridin]-5′-yl)phenyl)piperidin-2-one]
7.7 nM | Cn1cccc(-c2cccc(-c3cnc4c(c3Cl)C3(CC[C@@H](O)C3)CN4)c2)c1=O (single isomer, unassigned) [Compound 68b]
30 nM | CN(CC(C)(C)O)C(=O)c1c(N)ccc(-c2cnc3c(c2)C2(CC2)CN3)c1F [Compound 29, 6-amino-3-(1′,2′-dihydrospiro[cyclopropane-1,3′-pyrrolo[2,3-b]pyridin]-5′-yl)-2-fluoro-N-(2-hydroxy-2-methylpropyl)-N-methylbenzamide]
4 nM | CN(C)C(=O)c1c(N)ccc(-c2cnc3c(c2Cl)C2(CCC(CC#N)C2)CN3)c1F (stereo not shown) [Compound 130, 6-Amino-3-(4′-chloro-3-(cyanomethyl)-1′,2′-dihydrospiro[cyclopentane-1,3′-pyrrolo[2,3-b]pyridin]-5′-yl)-2-fluoro-N,N-dimethylbenzamide]
25.9 nM | CN(C)C(=O)c1c(N)ccc(-c2cnc3c(c2Cl)[C@]2(CC[C@@H](C(N)=O)C2)CN3)c1F (relative stereo) [Compound 84a, (1R,3R)-5′-(4-amino-3-(dimethylcarbamoyl)-2-fluorophenyl)-4′-chloro-1′,2′-dihydrospiro[cyclopentane-1,3′-pyrrolo[2,3-b]pyridine]-3-carboxamide]
112 nM | CC(=O)NCc1ccc(-c2cnc3c(c2Cl)C2(CC=CC2)CN3)cc1 [Compound 212, N-(4-(4′-Chloro-1′,2′-dihydrospiro[cyclopentane-1,3′-pyrrolo[2,3-b]pyridin]-3-en-5′-yl)benzyl)acetamide]
217 nM | CN(C)C(=O)c1c(N)ccc(-c2cnc3c(c2)[C@]2(CN3)C[C@@H](O)C2)c1F [Compound 77b, 6-Amino-2-fluoro-3-((1s,3s)-3-hydroxy-1′,2′-dihydrospiro[cyclobutane-1,3′-pyrrolo[2,3-b]pyridin]-5′-yl)-N,N-dimethylbenzamide]
24.2 nM | CN(C)C(=O)c1c(N)ccc(-c2cnc3c(c2Cl)[C@]2(CC[C@@H](O)C2)CN3)c1F [Compound 38a]
4.2 nM | CN(C)C(=O)c1c(N)ccc(-c2cnc3c(c2Cl)[C@]2(CC[C@](C)(C#N)C2)CN3)c1F (single isomer, unassigned) [Compound 261a]
150 nM | CN(C)C(=O)c1c(N)ccc(-c2cnc3c(c2Cl)[C@]2(CC[C@H](CN)CC2)CN3)c1F [Compound 258b, 6-Amino-3-((1s,4s)-4-(aminomethyl)-4′-chloro-1′,2′-dihydrospiro[cyclohexane-1,3′-pyrrolo[2,3-b]pyridin]-5′-yl)-2-fluoro-N,N-dimethylbenzamide]
153 nM | CN(C)C(=O)c1c(N)ccc(-c2cnc3c(c2Cl)[C@]2(CC[C@@](O)(Cn4cncn4)C2)CN3)c1F (relative stereo) [Compound 116a]
253 nM | CC(C)(C)c1nnc(-c2cccc(-c3cnc4c(c3Cl)C3(CC=CC3)CN4)c2)o1 [Compound 247, 2-(tert-Butyl)-5-(3-(4′-chloro-1′,2′-dihydrospiro[cyclopentane-1,3′-pyrrolo[2,3-b]pyridin]-3-en-5′-yl)phenyl)-1,3,4-oxadiazole]
270 nM | O=C1CCCCN1c1cccc2c(-c3cnc4c(c3Cl)[C@@]3(CC[C@@H](O)C3)CN4)c[nH]c12 (single isomer, unassigned) [Compound 300b]
236 nM | CN(C)C(=O)CNc1ccc(-c2cnc3c(c2)C2(CC2)CN3)cn1 [Compound 291, 2-((5-(1′,2′-dihydrospiro[cyclopropane-1,3′-pyrrolo[2,3-b]pyridin]-5′-yl)pyridin-2-yl)amino)-N,N-dimethylacetamide]
210 nM | CNS(=O)(=O)c1ccc(-c2cnc3c(c2Cl)C2(CC=CC2)CN3)cc1 [Compound 188, 4-(4′-Chloro-1′,2′-dihydrospiro[cyclopentane-1,3′-pyrrolo[2,3-b]pyridin]-3-en-5′-yl)-N-methylbenzenesulfonamide]
127 nM | O=C(c1cccc(-c2cnc3c(c2)C2(CC2)CN3)c1F)N1CCc2ccncc21 [Compound 176, (2,3-dihydro-1H-pyrrolo[2,3-c]pyridin-1-yl)(3-(1′,2′-dihydrospiro[cyclopropane-1,3′-pyrrolo[2,3-b]pyridin]-5′-yl)-2-fluorophenyl)methanone]
11.4 nM | Cn1cccc(-c2cc(-c3cnc4c(c3Cl)C3(CC3)CN4)cc(N)n2)c1=O [Compound 296, 6-amino-4-(4′-chloro-1′,2′-dihydrospiro[cyclopropane-1,3′-pyrrolo[2,3-b]pyridin]-5′-yl)-1′-methyl-[2,3′-bipyridin]-2′(1′H)-one]
2.51 nM | CC[C@@H]1C[C@@]12CNc1ncc(-c3ccc(N)c(C(=O)N(C)C)c3F)c(Cl)c12 (relative stereo) [Compound 150c, 6-Amino-3-((1R,2R)-4′-chloro-2-ethyl-1′,2′-dihydrospiro[cyclopropane-1,3′-pyrrolo[2,3-b]pyridin]-5′-yl)-2-fluoro-N,N-dimethylbenzamide]
5.54 nM | CCc1cnn([C@H]2CC[C@@]3(CNc4ncc(-c5ccc(N)c(C(=O)N(C)C)c5F)c(Cl)c43)C2)c1 (relative stereo) [Compound 170a, 6-Amino-3-((1R,3S)-4′-chloro-3-(4-ethyl-1H-pyrazol-1-yl)-1′,2′-dihydrospiro[cyclopentane-1,3′-pyrrolo[2,3-b]pyridin]-5′-yl)-2-fluoro-N,N-dimethylbenzamide]
275 nM | CC(=O)Nc1cccc(-c2cnc3c(c2Cl)C2(CC=CC2)CN3)c1 [Compound 222, N-(3-(4′-Chloro-1′,2′-dihydrospiro[cyclopentane-1,3′-pyrrolo[2,3-b]pyridin]-3-en-5′-yl)phenyl)acetamide]
194 nM | Cn1cccc(-c2cccc(-c3cnc4c(c3Cl)[C@]3(CC[C@](C)(C(N)=O)C3)CN4)c2)c1=O (single isomer, unassigned) [Compound 179a]
4.5 nM | CN(C)C(=O)c1c(N)ccc(-c2cnc3c(c2Cl)C2(CCC(=CC(N)=O)C2)CN3)c1F (stereo not shown) [Compound 110, 6-Amino-3-(3-(2-amino-2-oxoethylidene)-4′-chloro-1′,2′-dihydrospiro[cyclopentane-1,3′-pyrrolo[2,3-b]pyridin]-5′-yl)-2-fluoro-N,N-dimethylbenzamide]
927 nM | CN(C)C(=O)c1c(N)ccc(-c2cnc3c(c2)[C@]2(CN3)C[C@](C)(O)C2)c1F [Compound 78a, 6-Amino-2-fluoro-3-((1r,3r)-3-hydroxy-3-methyl-1′,2′-dihydrospiro[cyclobutane-1,3′-pyrrolo[2,3-b]pyridin]-5′-yl)-N,N-dimethylbenzamide]
